SMILES strings stand for the structures.

Series [1] can be described thus: In vitro CT imaging in multimodal phantom. As to conditions: 120 kV, 300 mA. The method, then: In vitro contrast efficacy was determined by imaging the liposome formulated signal modifying agents at varying concentrations in both CT and MR, using a multimodal imaging phantom. To minimize the amount of agent leakage from liposomes, in vitro imaging scans were performed immediately following the removal of free agents by dialysis. […] The mean attenuation in Hounsfield units was measured using circular regions of interest (ROI). Attenuation values were then plotted against signal modifying agent concentrations using linear regression analysis.

Series [2] is described as follows: In vitro MR imaging in multimodal phantom. An excerpt: The phantom and the vials were filled to capacity to minimize air-induced susceptibility artefacts. Scans were produced using a T1 weighted spin echo sequence with a repetition time (TR) of 400 ms, an echo time (TE) of 9 ms, a slice thickness of 3 mm, a FOV of 1 9.9×19.9 cm and an image carrier of 256×192 pixels. The relative signal intensity was taken over the ROI. Solutions of free signal modifying agents were also imaged as controls in both modalities.

A short description of series [3]: In vitro relaxometry (r1, r2). It counts as physicochemical. Conditions: 20° C., 1.5 T, versus gadolinium concentration (free iohexol: [I]). The method, then: All in vitro relaxometry measurements were performed at 20° C. on a 1.5 Tesla, 20-cm-bore superconducting magnet (Nalorac Cryogenics Corp., Martinez, Calif.) controlled by an SMIS spectroscopy console (SMIS, Surrey, UK). The T1 relaxation time data were acquired using an inversion recovery (IR) sequence (45) with 35 inversion recovery time (TI) values logarithmically spaced from 1 to 32000 ms. A 10 second delay was given between each acquisition and the next inversion pulse. […] For every measurement 2000 even echoes were sampled with 8 averages. The effects of any residual transverse magnetization following the off-resonance irradiation was removed by phase-cycling the π/2 pulse (−x/x).
The T1 relaxation data were analyzed assuming mono-exponential behaviour
[formula] where S is the signal observed, M0 is the magnetization at equilibrium, t is time and T1 is the longitudinal relaxation time). All T2 decay data were plotted to a one component T2 model with a Gaussian fit on a logarithmic time scale. The r1 and r2 values were calculated from linear regression analysis of 1/T1 and 1/T2 relaxation rates versus gadolinium concentration.

With `CC(O)CN1CCN(CC(=O)[O-])CCN(CC(=O)[O-])CCN(CC(=O)[O-])CC1.[Gd+3]` (stereo not shown) [Free Gadoteridol, gadolinium complex of 10-(2-hydroxy-propyl)-1,4,7,10-tetraazacyclododecane-1,4,7-triacetic acid], the “CT attenuation (linear regression)” value in series [1] is listed as 11.1±0.5 HU/(mg of gadolinium) in 1 mL of HBS. The “peak differential signal intensities with respect to water in MR” value in series [2] (gadolinium 1 to 9 mmol/L) was > 600 SI. In series [3], the r1 was 5.14 ± 0.06 s^−1mmol^−1L and the r2 stood at 6.21 ± 0.08 s^−1mmol^−1L. In series [3] (listed as unencapsulated gadoteridol), this compound gave a r1 of 5.1 s^−1mmol^−1L.

As for `CC(=O)N(CC(O)CO)c1c(I)c(C(=O)NCC(O)CO)c(I)c(C(=O)NCC(O)CO)c1I` (stereo not shown) [Free Iohexol, iohexyl], the “CT attenuation (linear regression)” value in series [1] is reported as 29.0±0.4 HU/(mg of iodine) in 1 mL of HBS. Also, in series [2] (iodine 0 to 17 mmol/L), the “average differential signal intensity in MR relative to water” value is 1.8±7.1 SI. Besides, in series [3], the r1 was 0.00 ± 0.00 s^−1mmol^−1L and the r2 came to 0.01 ± 0.01 s^−1mmol^−1L. In addition, the r1 in series [3] (listed as iohexyl) amounted to 0.0 s^−1mmol^−1L.

The values are drawn from US9393326B2, “Compositions and methods for multimodal imaging” (University Health Network, priority 2005, dated 2016).
